Experimental data as given in US20250243180A1, “TARGETED PROTEIN DEGRADATION” (Monte Rosa Therapeutics AG, priority 2023, published 2025).
Like-named read-outs stand apart in the source and are kept apart here.

Assays:
CRBN-DDB1 = CRBN-DDB1 (Homo sapiens (Human), UniProt Q96SW2); assay: Compound binding to CRBN by HTRF assay
In short: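 Ki calculated via Cheng-Prusoff from geometric-mean EC50 values, after normalizing the HTRF ratio to lenalidomide (active) and DMSO (neutral) controls. Compounds (11 points, 1:3 steps) incubated 30 min at ambient temperature with CRBN-DDB1 2.5 nM, anti-His Tb cryptate and Cy5-thalidomide tracer 100 nM.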

NEK7 = NEK7 (Homo sapiens (Human), UniProt Q8TDX7+Q96SW2); assay: NEK7 NanoBiT degradation assay in Cal51 NEK7 NanoBiT cell line; assay type: cell-based; details: Cal51 NEK7 NanoBiT cells, 24 hours; for Dmax: CAL-51
In short: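 EC50 comes from a 4-parameter fit of control-normalized luminescence. The luminescence reports HiBiT-NEK7 (endogenous knock-in) complemented by stably expressed LgBiT in Cal51 cells after 24 h compound exposure at 37 °C. Final concentrations ran 1 μM to 0.05 nM, with Endurazine substrate present in the medium throughout.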

Caspase-1 activity = Caspase-1 activity in human monocyte-derived macrophages, LPS/nigericin stimulation; assay type: cell-based; details: Macrophage, 24 h pre-treatment, LPS 3 h then 10 μM nigericin 1 h, read-out: Caspase-1 IC50 (NIG)
Description: (§1) Human monocytes were enriched and isolated from a buffy coat of healthy donor whole blood with a RosetteSep™ Human Monocyte Enrichment Cocktail (Cat.No. 15068, StemCell) and Ficoll-Plaque PLUS (Cat.No. H8889, Sigma). Monocytes were differentiated into macrophages by treatment with 100 ng/mL M-CSF for 6 days at 37° C., 5% CO2. Differentiated macrophages were seeded overnight (50,000 cells/well) in 100 µL of medium in a 96-well, white-bottom plate at 37° C., 5% CO2. Cells were treated with a concentration range of MGD for 24 hours prior to stimulation with nigericin. Macrophages were primed with […] LPS for 3 h followed by 1 h stimulation with 10 μM nigericin. Media of stimulated macrophages were collected and assayed for caspase 1 activity directly (Promega G9951), according to manufacturer's instructions. For IL-1β release assay, media of stimulated macrophages were collected and stored at −20° C., then thawed at 4° C. before assaying for IL-1β activity (Promega W6011), according to manufacturer's instructions.

IL-1β release = IL-1β release in human monocyte-derived macrophages, LPS/nigericin stimulation; assay type: cell-based; details: Macrophage, 24 h pre-treatment, LPS 3 h then 10 μM nigericin 1 h, read-out: IL-1b IC50 (NIG)
Description: as §1

[1] = NEK7 degradation, read-out: NanoBiT Dmax
[2] = NEK7 degradation, read-out: NanoBiT DC50

CRBN-DDB1, sequence (Q96SW2 whole entry): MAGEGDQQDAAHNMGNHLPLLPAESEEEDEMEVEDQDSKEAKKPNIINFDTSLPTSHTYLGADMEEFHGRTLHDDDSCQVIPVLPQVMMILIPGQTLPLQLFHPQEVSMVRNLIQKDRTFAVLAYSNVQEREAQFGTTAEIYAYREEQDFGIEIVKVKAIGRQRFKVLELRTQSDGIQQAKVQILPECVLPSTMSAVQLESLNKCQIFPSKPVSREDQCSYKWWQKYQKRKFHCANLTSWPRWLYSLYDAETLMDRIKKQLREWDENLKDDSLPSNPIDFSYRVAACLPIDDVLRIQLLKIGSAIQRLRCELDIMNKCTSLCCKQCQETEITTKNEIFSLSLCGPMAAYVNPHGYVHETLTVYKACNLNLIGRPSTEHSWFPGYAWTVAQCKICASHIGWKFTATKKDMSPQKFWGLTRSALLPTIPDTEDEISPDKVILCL
CRBN-DDB1, sequence (Q16531 whole entry partner): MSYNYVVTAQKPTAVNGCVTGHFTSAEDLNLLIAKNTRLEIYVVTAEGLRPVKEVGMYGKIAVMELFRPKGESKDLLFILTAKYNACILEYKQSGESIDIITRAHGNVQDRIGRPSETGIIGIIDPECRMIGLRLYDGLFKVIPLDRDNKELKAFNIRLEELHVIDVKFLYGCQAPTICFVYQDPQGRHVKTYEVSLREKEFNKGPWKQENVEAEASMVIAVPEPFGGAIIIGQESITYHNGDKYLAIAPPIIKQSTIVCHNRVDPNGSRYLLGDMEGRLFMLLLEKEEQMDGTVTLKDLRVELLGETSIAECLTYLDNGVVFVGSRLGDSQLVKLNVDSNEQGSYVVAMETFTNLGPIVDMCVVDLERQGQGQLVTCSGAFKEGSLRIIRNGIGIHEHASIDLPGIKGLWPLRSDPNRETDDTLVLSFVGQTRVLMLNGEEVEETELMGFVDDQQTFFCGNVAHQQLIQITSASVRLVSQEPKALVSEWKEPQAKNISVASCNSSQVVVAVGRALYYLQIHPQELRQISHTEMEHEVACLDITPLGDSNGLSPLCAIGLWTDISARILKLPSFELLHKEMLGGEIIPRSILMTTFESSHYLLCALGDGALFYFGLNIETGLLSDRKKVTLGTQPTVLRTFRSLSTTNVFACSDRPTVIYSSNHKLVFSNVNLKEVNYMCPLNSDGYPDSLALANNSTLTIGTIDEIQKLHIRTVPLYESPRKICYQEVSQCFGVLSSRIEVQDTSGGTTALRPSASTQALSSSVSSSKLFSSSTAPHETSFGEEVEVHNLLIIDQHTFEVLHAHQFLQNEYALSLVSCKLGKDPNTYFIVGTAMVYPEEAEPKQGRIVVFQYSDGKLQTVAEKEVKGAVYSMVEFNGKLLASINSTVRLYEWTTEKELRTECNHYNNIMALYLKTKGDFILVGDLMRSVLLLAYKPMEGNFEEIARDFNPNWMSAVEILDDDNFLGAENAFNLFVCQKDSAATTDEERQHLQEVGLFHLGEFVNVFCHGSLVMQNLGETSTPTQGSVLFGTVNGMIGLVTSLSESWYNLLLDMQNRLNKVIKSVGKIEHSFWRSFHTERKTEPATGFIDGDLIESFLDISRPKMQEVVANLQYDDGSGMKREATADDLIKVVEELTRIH
NEK7, sequence (Q8TDX7 whole entry): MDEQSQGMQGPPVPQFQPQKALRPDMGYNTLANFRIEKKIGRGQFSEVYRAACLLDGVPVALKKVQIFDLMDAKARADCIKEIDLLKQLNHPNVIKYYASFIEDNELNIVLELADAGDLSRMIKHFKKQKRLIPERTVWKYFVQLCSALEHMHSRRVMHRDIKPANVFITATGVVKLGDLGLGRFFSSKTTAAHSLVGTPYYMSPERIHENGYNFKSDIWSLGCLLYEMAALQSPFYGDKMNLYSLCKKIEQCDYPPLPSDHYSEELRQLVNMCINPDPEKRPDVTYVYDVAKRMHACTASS
NEK7, sequence (Q96SW2 whole entry): as the sequence (Q96SW2 whole entry) above
NEK7, sequence (Q16531 2-1140 partner): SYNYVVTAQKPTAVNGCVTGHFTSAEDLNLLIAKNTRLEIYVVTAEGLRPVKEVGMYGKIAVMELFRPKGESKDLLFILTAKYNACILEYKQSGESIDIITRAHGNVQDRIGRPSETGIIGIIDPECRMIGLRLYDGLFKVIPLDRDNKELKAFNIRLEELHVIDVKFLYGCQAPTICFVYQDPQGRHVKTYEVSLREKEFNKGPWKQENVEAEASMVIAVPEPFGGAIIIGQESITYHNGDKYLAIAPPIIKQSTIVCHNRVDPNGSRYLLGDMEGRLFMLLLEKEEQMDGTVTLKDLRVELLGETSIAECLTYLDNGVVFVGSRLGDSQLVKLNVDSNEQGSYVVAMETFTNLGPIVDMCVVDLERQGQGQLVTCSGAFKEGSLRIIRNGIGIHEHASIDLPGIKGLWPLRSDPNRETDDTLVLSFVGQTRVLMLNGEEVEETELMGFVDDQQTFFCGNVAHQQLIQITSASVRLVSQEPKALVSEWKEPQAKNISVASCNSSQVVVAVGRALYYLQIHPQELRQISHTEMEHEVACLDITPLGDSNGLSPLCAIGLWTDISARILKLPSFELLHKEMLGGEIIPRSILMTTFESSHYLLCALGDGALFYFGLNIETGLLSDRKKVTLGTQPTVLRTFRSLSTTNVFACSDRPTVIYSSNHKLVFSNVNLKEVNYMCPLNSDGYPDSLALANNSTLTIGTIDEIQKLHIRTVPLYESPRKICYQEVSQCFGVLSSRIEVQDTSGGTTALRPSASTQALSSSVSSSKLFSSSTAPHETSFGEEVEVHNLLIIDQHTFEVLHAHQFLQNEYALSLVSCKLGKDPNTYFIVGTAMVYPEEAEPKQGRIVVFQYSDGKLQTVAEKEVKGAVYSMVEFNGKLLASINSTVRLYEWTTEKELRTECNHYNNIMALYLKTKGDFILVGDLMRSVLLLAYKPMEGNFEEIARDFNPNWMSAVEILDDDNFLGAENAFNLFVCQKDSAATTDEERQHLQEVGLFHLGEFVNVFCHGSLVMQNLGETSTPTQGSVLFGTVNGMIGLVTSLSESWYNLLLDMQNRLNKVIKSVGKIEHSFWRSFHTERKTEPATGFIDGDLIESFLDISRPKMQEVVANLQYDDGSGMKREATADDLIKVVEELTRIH

| EC50 (CRBN-DDB1) [nM] | EC50 (CRBN-DDB1; HTRF class, Cereblon binding) [nM] | Dmax (NEK7; read-out: NEK7 NanoBiT Dmax) [%] | Dmax (NEK7; [1]) [%] | DC50 (NEK7; read-out: NEK7 NanoBiT DC50) [nM] | DC50 (NEK7; [2]) [nM] | IC50 (Caspase-1 activity) [nM] | IC50 (IL-1β release) [nM] | Structure (SMILES) |
| --- | --- | --- | --- | --- | --- | --- | --- | --- |
| 110 | 100 to 1000 | 89 | > 75 | 9 | ≤ 100 | 1.85 | 1.95 | Cc1cnc(C(C)(C)C(=O)NCc2cc(Cl)c(C3CCC(=O)NC3=O)c(Cl)c2)nc1 (stereo not shown) [Compound 14, N-(3,5-dichloro-4-(2,6-dioxopiperidin-3-yl)benzyl)-2-methyl-2-(5-methylpyrimidin-2-yl)-propanamide] |
| 120 | 100 to 1000 | 95 | > 75 | 4 | ≤ 100 | 0.32 | 0.56 | CC(C)(C(=O)NCc1cc(Cl)c(C2CCC(=O)NC2=O)c(Cl)c1)c1ncc(C#N)cn1 (stereo not shown) [Compound 16, 2-(5-cyanopyrimidin-2-yl)-N-(3,5-dichloro-4-(2,6-dioxopiperidin-3-yl)benzyl)-2-methyl-propanamide] |
